Legend:
Assay type in all cases: cell-based, human
Details in all cases: diclofenac 1 mM, 24 h
CD14^+ monocytes [1] = experiment: HDL+SAA1-induced cytokine secretion by ex vivo CD14+ monocytes (ELISA)
Protocol: Isolation of Peripheral Blood Monocytes. Peripheral blood monocytes were isolated using a two-step process. Peripheral blood was diluted with PBS at a 1:1 ratio, slowly overlaid onto 30 ml of Lymphoprep™ (catalog #07811, StemCell Technologies, Vancouver Canada) in a 50 ml conical tube, and centrifuged at 400×g for 25 min without braking. The peripheral blood mononuclear cell (PBMC) layer was carefully transferred to another 50 ml conical tube, washed with PBS, followed by two washes with FACS buffer (0.5 mM EDTA, 1% BSA, and 1% mouse serum in PBS). Monocytes subsets were identified and sorted by flow cytometry using the following antibodies: PE mouse anti-human CD45 clone HI30 (catalog #555483), BV421 mouse anti-human CD14 clone MφP9 (catalog #563743), and FITC mouse anti-human CD16 clone B73.1 (catalog #561308), and a FACS ARIA Fusion sorter equipped with 355, 407, 488, 532 and 640 nm LASER lines using FACS DIVA 8.0 software (all from BD Biosciences, San Jose, Calif.). The gating strategy identified a population of debris-free, single, live, ^SSCmoderate/high, CD45^+ cells from which CD14^+/CD16^− (classical), CD14^+/CD16^+ (intermediate), CD14^dim/CD16^+ (non-classical), and CD14^+ (classical and intermediate) cells were sorted and utilized for experiments, as indicated (Supplemental FIG. 4).
HDL+SAA1 Stimulation of Peripheral Blood Monocytes Subsets. […] As previously described, normal HDL was isolated from plasma obtained from healthy subjects by sequential KBr differential gradient ultracentrifugation at 330,000 g and extensive dialysis with 50 mM HEPES, 50 mM NaCL, 5 mM MgCl2 and 2 mM CaCl2, pH 7.0, at 4° C. Normal HDL was complexed with recombinant human serum amyloid A-1 at a 2:1 ratio by mixing and incubated at RT overnight to generate HDL+SAA1, which was filtered using a 100-kDa exclusion filter (Amicon Ultra Centrifuge Filters, Millipore, Darmstadt, Germany) to remove any uncomplexed SAA1. Normal HDL was also complexed with the amount of lipopolysaccharide (catalog # L4391, E. coli 0111:B4, y-irradiated, MilliporeSigma, St. Louis, Mo.) present in recombinant human SAA1. Additionally, classical CD14^+ monocytes were treated with the P2X7R antagonist, A438079, the IKK inhibitor, BAY-11-7082, the IKKβ (IKK-2) inhibitor, TPCA-1, or the selective COX-2 inhibitor, celexocib, all from MilliporeSigma(St. Louis, Mo.). Cells were also treated with the FPR2 antagonist, WRW4, or diclofenac from Tocris (Minneapolis, Minn.). The amount of IL-1β, IL-6, TNF-α and IL-10 secreted into cell culture supernatants was quantified using human DuoSet ELISA kits (R&D Systems) and data were acquired using a SpectraMax M2 spectrophotometer (Molecular Devices, San Jose, Calif.). Western blotting, as previously described^43, was performed using antibodies directed against COX-1 (catalog #160110) and COX-2 (catalog #160112), both from Cayman Chemical (Ann Arbor, Mich.). Equivalency of protein loading was established using an antibody directed against GAPDH (catalog #MAB5718) from R&D Systems (Minneapolis, Minn.). Western blots images were captured using an iBright FL1000 Western Blot Imaging System (ThermoFisher Scientific, Waltham, Mass.) and quantified using NIH ImageJ software (imagej.nih.gov). […]

CD14^+ monocytes [2] = experiment: PGE2 and TXB2 secreted by CD14+ monocytes cultured with HDL+SAA1
Source text: FIG. 4 illustrates that HDL enriched with serum amyloid A (HDL+SAA1) induces cytokine secretion from CD14+ monocytes via a P2X7R/NF-κB/COX-2-dependent pathway. a, Volcano plot showing differentially expressed mRNA transcripts from classical CD14+/CD16− monocytes from asthmatics (n=10) that were stimulated ex vivo with or without HDL enriched with recombinant human SAA1 (HDL+SAA1). Additional experiments utilized ex vivo cultures of CD14^+ monocytes isolated by flow cytometry from healthy subjects to characterize the HDL+SAA1-mediated P2X7R/NF-κB/COX-2-dependent pathway, except where indicated. b, PTGS2 mRNA levels were quantified by qRT-PCR in cells stimulated with normal HDL or HDL+SAA1 and presented as RQ (relative quantification). n=7 subjects, pairwise comparisons of all groups vs. media, repeated measures one-way ANOVA with Dunnett's multiple comparisons test. c, Western blot showing COX-1 and COX-2 protein in cells stimulated with normal HDL or HDL+SAA1. GAPDH is shown as a control for equivalency of protein loading. The Western blot shown is representative of 3 independent experiments using cells from different subjects. […]

CD14^+ monocytes [3] = experiment: HDL+SAA1-induced cytokine secretion by ex vivo CD14+ monocytes (ELISA); remark: listed apart in the source

## O=C(O)Cc1ccccc1Nc1c(Cl)cccc1Cl [diclofenac, 2-[(2,6-dichlorophenyl)amino] benzeneacetic acid]
CD14^+ monocytes [1]
  HDL+SAA1-mediated secretion of IL-6: significantly inhibited
  HDL+SAA1-mediated secretion of IL-10: significantly inhibited
  HDL+SAA1-mediated secretion of TNF-α: significantly inhibited
CD14^+ monocytes [2]
  HDL+SAA1-induced increase in prostaglandin E2: suppressed
  HDL+SAA1-induced increase in thromboxane B2: suppressed
CD14^+ monocytes [3]
  HDL+SAA1-mediated secretion of IL-13: significantly inhibited
